≈ marks a conversion by molar mass, not a printed value. Where “and” joins values, the source holds several entries; their conditions need not be identical. Equal entries are not always repeated. Where two headings read alike, the source gives them in different places.
Legend:
Hep-2C cells = assay: MTT assay against Hep-2C cells; format: cell-based, Human; conditions: Homo sapiens, Hep2C, read-out: IC50 (Mean ± SEM) Hep-2C Cells
Procedure: Hep-2C cell line experiments were performed in the Immunology Lab of the National Institute of Health (NIH), Islamabad, Pakistan. Human cervix carcinoma cells Hep-2C (ATCC HB-8065) were cultured in Dulbecco’s modified Eagle’s medium (DMEM), comprising 10% fetal calf serum (10% FCS) and supplemented with 2 mM L-glutamine, 100 U/mL penicillin, 100 µg/mL streptomycin and 1 mM Na pyruvate, at 37 °C in a humidified 5% CO2 incubator.
The tetrazolium dye 3-(4, 5-dimethyl thiazolyl-2)-2, 5-diphenyltetrazolium bromide (MTT) was used to assess the cytotoxic potential of the test compounds. In living cells, MTT is reduced into its insoluble purple product formazan, which is measured spectrophotometrically.
Hep-2C cells, in a density of 1 × 10^6 (> 90% cell viability), were cultured in a 96-well plate and treated with different concentrations of the test compounds for 24, 48 and 72 h. Ten microliters of MTT (1 mg per mL) were added per well followed by incubation for 4 h. Insoluble formazan crystals were dissolved by adding 100 µL of DMSO. Cells were then incubated for another 2 h. Absorbance was measured at 570 nm by a microplate reader. Untreated Hep-2C cells were taken as controls and DMSO as a negative. % cell viability = (abssample − absblank)/(abscontrol − absblank) × 100

[1] = DPPH free radical scavenging assay; conditions: mean ± SEM, n = 3; for IC50 (DPPH radical scavenging): concentration to scavenge 50% of the DPPH radicals
Procedure: The % free radical scavenging activity (%FRSA) of the synthetic compounds was evaluated by the discoloration of an unstable DPPH reagent to the stable yellow-colored 2,2-diphenyl-1-picrylhydrazine molecule by accepting one electron from a donor antioxidant; the mechanism is shown in Scheme 2.
The % FRSA (free radical scavenging activity) of the synthetic compounds was determined by using the method of Tai et al. with slight modifications. The antioxidant potential was determined by detecting the capacity of the synthetic compounds to quench the DPPH free radicals. The synthetic compounds were taken in a 96-well plate at three-fold concentrations of 200 µg/mL, 66.6 µg/mL, 22.2 µg/mL and 7.4 µg/mL. DPPH free radicals were added to entire wells to make up the volume up to 200 µL. DMSO and ascorbic acid were taken as negative and positive controls, respectively. The absorbance was taken at 630nm using a microplate reader (ELx800 BioTek). The percentage of scavenging activity was calculated by the given formula:% scavenging activity = (1 − Abs/Abc) × 100
Abs = sample’s absorbance; Abc = control’s absorbance.

[2] = tested on: NO generated by LPS-induced macrophages; assay: Nitric oxide assay (Griess) in LPS-induced macrophages; format: cell-based, murine; conditions: Mus musculus, Macrophage, 18 h, LPS 1 µg/mL, read-out: % NO Production (Mean ± SEM)
Procedure: A Griess reagent, a spectrophotometric determination of nitrite level, was carried out to measure the nitrite level in the conditioned medium of macrophages treated with lipopolysaccharide (LPS). Sodium nitrite (NaNO2) was used as a standard compound for the standard curve (Figure 8). The NO concentrations were obtained using the standard curve equation: y = 0.0083x + 0.0017, R^2 = 0.9999, where y is the absorbance at 540 nm and x is the NO concentration in µM. The inhibitory activity of the tested compounds towards NO generated by LPS-induced macrophages was obtained from the calculated value of x.
The anti-inflammatory effect of the synthesized compounds in murine macrophages was evaluated by using the Griess reaction method, described previously. In brief, 1 × 10^6 were plated in a 96-well plate and incubated in a 5% CO2 incubator at 37 °C for 24 h, pre-treated with different concentrations (100 µM, 50 µM, 10 µM and 1 µM) of synthetic compounds for another 2 h and challenged with LPS (1 µg/mL) for an additional 18 h. Equal volumes of Griess reagent (1% sulphanilamide in 50% phosphoric acid and 0.1% naphthyl ethylenediamine dihydrochloride in distilled water and vortexed) and culture medium were mixed and the absorbance was taken at 540 nm. Lipopolysaccharide (LPS) was taken as a blank and piroxicam was taken as a positive control. A t-test was applied to determine the significance of the results.

[3] = MTT cytotoxicity against raw macrophages; format: cell-based, albino rats; conditions: albino, rat; for viability at 24 h, 1 µM / viability at 24 h, 10 µM / viability at 24 h, 50 µM / viability at 24 h, 100 µM: peritoneal macrophages (raw macrophages), raw macrophages, MTT, read-out: % Cell Viability; for IC50 at 24 h: primary peritoneal macrophages, mean ± SEM, n = 3
Procedure: The % cell viability of the synthetic library was evaluated in vitro by measuring the mitochondrial dehydrogenase activity (MTT test) on raw macrophages.
The cytotoxic potential was assessed by using an MTT 3-(4,5-dimethyl thiazole-2-yl)-2,5- diphenyl tetrazolium bromide assay. Briefly, macrophages were extracted from the peritoneal cavity of albino rats and plated at a density of 1 × 10^6 per well in a 96-well plate and incubated in a 5% CO2 incubator at 37 °C for 24 h. The cells were treated with various concentrations of the test compounds (100 µM, 50 µM, 10 µM and 1 µM) or vehicle alone. The test compounds were first dissolved in DMSO to make a 100 mM stock solution and then further dilutions were made from this stock solution. After 24 h of incubation, 20 µL of MTT (1 mg/mL in normal saline) was added into each well and incubated under the same conditions for 2 h. Mitochondrial succinate dehydrogenase converted MTT in live cells into purple formazan crystals. The formazan crystals were then solubilized in 100 µL DMSO, and the absorbance was measured at 570 nm. The % cell viability was calculated by the following formula; % cell viability = (abssample − absblank)/(abscontrol − absblank) × 100

brine shrimp nauplii = assay: Brine shrimp lethality bioassay; format: in vivo; conditions: 24 h, n = 3
Procedure: Brine shrimp eggs were hatched in a shallow rectangular plastic dish and filled with artificial seawater, which was prepared with a commercial salt mixture. In a 96-well plate, 150 µL of artificial seawater was added and 10 nauplii were added into this. Test compounds (400, 200, 100 and 50 µg/mL) were added into each well and the final volume was made up by adding the artificial seawater. The well plate was left uncovered under a lamp. The number of surviving shrimps were counted and recorded after 24 h. The test was repeated in triplicate. […] The percentage mortality (%M) was also calculated by dividing the number of dead nauplii by the total number and then multiplied by 100.

α-amylase enzyme = assay: α-Amylase enzyme inhibitory assay; format: biochemical
Procedure: An in vitro α-amylase enzyme inhibitory assay was performed by the standard protocol. Four milligrams per 1 mL of sample was prepared in DMSO. In each well of a 96-well plate, synthetic compounds were added to a final concentration of 200 µg/mL. To this, 15 μL phosphate buffer, […] α-amylase enzyme and 40 μL starch solution were added stepwise. The microplate was incubated at 50 °C for 30 min. […] The formula used to calculate the percent enzyme inhibition is:% Enzyme inhibition = [(As − An) ÷ (Ab − An] × 100
As = sample’s absorbance; An = negative’s absorbance; Ab = blank’s absorbance

[4] = Phosphomolybdenum-based total antioxidant capacity (TAC)
Procedure: In the presence of an antioxidant, the phosphomolybdate ion gets reduced and a green phosphate–molybdate complex is formed, which is analyzed spectrophotometrically.
The total antioxidant capacity was determined by using the phosphomolybdenum-based method. The method is based on the reduction of Mo (VI) to Mo (V), leading to the formation of a green-colored phosphate–molybdenum complex that gives absorption at 630 nm. In 96-well plates, 20 µL of the sample was added with 180 µL TAC reagents in it and incubated at 95 °C for 90 min in a water bath and cooled at room temperature. The results were calculated as µg AAE/mg.

[5] = Total reducing power (TRP) assay
Procedure: A TRP assay was carried out to evaluate the reducing potential of synthetic compounds. The method implicates reductones. These reductones are species with antioxidant potential that is believed to be due to their proton-donating capacity. […] The maximum value of reducing power was 104.7 ± 1.9 µg/AAE for SF5, followed by 103.18 ± 2.4 µg/AAE for SF7 and 84.57 ± 1.9 µg/AAE for SF12 (Figure 3 and Figure 4 (standard curve)).
The assay is based on the reduction of Fe^+3 to Fe^+2. The method described by Khan et al. was used with slight modifications. One hundred microliters of test samples (4 mg/mL DMSO) were taken in an Eppendrof tube and 200 μL of phosphate buffer (0.2 mol/L, pH 6.6) and 250 µL of 1% potassium ferricyanide (K3Fe CN)6) were added. This was allowed to incubate at 50 °C for 20 min. Later on, 200 μL of 10% trichloroacetic acid (TCA) was added to the mixture. The mixture was centrifuged at 3000 rpm at room temperature for 10 min. After centrifugation, 150 µL of supernatant were transferred to microplate with FeCl3 (50 μL, 0.1%) and the absorbance was taken at 630 nm. The results were calculated as µg AAE/mg.

Row | SMILES | % DPPH Scavenging Activity ([1]; 7.4 µg/mL) [%] | % DPPH Scavenging Activity ([1]; 22.22 µg/mL) [%] | % DPPH Scavenging Activity ([1]; 66.66 µg/mL) [%] | % DPPH Scavenging Activity ([1]; 200 µg/mL) [%] | IC50 (DPPH radical scavenging) [1] [µg/mL] | activity at 1 µM [2] [%] | activity at 10 µM [2] [%] | activity at 50 µM [2] [%] | activity at 100 µM [2] [%] | viability at 24 h, 1 µM [3] [%] | viability at 24 h, 10 µM [3] [%] | viability at 24 h, 50 µM [3] [%] | viability at 24 h, 100 µM [3] [%] | IC50 at 24 h [3] [µM] | LD50 ± SEM (brine shrimp lethality) (brine shrimp nauplii) [µg/mL] | IC50 (α-amylase) (α-amylase enzyme) [µg/mL] | further results
1 | Clc1cccc(NCN2CCCc3ccccc32)c1 [SF8, 3-Chloro-N-((3,4-dihydroquinolin-1(2H)-yl)methyl) aniline] | 27.98 ± 0.24 | 50.17 ± 0.32 | 52.12 ± 0.36 | 62.35 ± 0.14 | 29.19 ± 0.25 (≈ 107 µM) | 39.4 ± 0.48 | 29.4 ± 0.44 | 24.1 ± 0.41 | 15 ± 0.33 | 97 ± 1.04 | 83 ± 0.78 | 68 ± 0.79 | 52 ± 1 | 21.2 ± 0.33 | 123.4 ± 1.87 | 27.39 ± 1.43 (≈ 100 µM) | IC50 (Hep-2C cells; 24 h): 20.2 ± 1.07 µM; IC50 (Hep-2C cells; 48 h): 15.7 ± 1.08 µM; IC50 (Hep-2C cells; 72 h): 11.9 ± 1.04 µM
2 | Brc1ccc(NCN2CCCc3ccccc32)cc1 [SF9, 4-Bromo-N-((3,4-dihydroquinolin-1(2H)-yl)methyl) aniline] | 7.64 ± 0.26 | 19.35 ± 0.11 | 50.28 ± 0.22 | 67.46 ± 0.14 | 50.76 ± 0.37 (≈ 160 µM) | 66.97 ± 0.61 | 58.54 ± 0.55 | 55.6 ± 0.51 | 49.07 ± 0.45 | 98 ± 0.87 | 91 ± 0.91 | 84 ± 1.21 | 82 ± 0.96 | 14.2 ± 0.26 | 139 ± 0.87 | 18.55 ± 0.89 (≈ 58.5 µM) | Total antioxidant capacity (TAC) [4]: 179.76 ± 1.6231 µg/AAE; % inhibition of α-amylase enzyme (α-amylase enzyme; 200 µg/mL): 89.93% and 93%
3 | CC(=O)N(CN1CCCc2ccccc21)c1ccccc1 [SF10, N-((3,4-dihydroquinolin-1(2H)-yl)methyl)-N-phenylacetamide] | 23.45 ± 0.28 | 31.89 ± 0.21 | 40.77 ± 0.31 | 49.73 ± 0.19 | 47.81 ± 0.27 (≈ 171 µM) | 62.4 ± 0.65 | 58.5 ± 0.59 | 42.5 ± 0.54 | 33.84 ± 0.33 | 100 ± 0.88 | 95 ± 0.93 | 80 ± 1.24 | 76 ± 1.2 | 24.8 ± 0.269 | 196.1 ± 1.12 |  | Total reducing power (TRP) [5]: no activity
